This test has as its target NAMPT (Homo sapiens, UniProt P43490). Description: Assay for in vitro NAMPT activity via NMN assessment. The following applies: read-out: A: NAMPT enzyme inhibitory activity, IC50. The format is biochemical. As for the experimental part: The following were added to a well: 20 μL 2× test compound in Basic Buffer (0.02% BSA, 2 mM DTT, 12 mM MgCl2, 50 mM Tris pH7.5); 10 μL 8 μg/mL NAMPT, and 200 μM PRPP working solution (or PRPP working solution to background wells). 10 μL 100 μM NAM working solution was added to start the reaction. The plate was sealed and incubated for 45 minutes at 37° C. After incubation, 10 μL 20% acetophenone in DMSO, 10 μL 2N KOH, and 20 μL 88% formic acid were added. The plate was sealed and incubated for 30 minutes at 37° C. After incubation, fluorescence at Ex/Em 387/441 was read.
In each table header, A: NAMPT enzyme inhibitory activity, IC50 (μM); B: Cellular NAD inhibitory activity, IC50 (μM); and C: change in NAD levels in response to test compound, shown as % of NAD activity in the absence of test compound. […] A percentage of 100 percent would indicate no increase or decrease in NAD levels as compared to that measured for untreated control cells, while a percentage of 50 percent would indicate a decrease in NAD levels of 50 percent as compared to that measured for untreated control cells.
Sequence of NAMPT (P43490 whole entry, species assumed): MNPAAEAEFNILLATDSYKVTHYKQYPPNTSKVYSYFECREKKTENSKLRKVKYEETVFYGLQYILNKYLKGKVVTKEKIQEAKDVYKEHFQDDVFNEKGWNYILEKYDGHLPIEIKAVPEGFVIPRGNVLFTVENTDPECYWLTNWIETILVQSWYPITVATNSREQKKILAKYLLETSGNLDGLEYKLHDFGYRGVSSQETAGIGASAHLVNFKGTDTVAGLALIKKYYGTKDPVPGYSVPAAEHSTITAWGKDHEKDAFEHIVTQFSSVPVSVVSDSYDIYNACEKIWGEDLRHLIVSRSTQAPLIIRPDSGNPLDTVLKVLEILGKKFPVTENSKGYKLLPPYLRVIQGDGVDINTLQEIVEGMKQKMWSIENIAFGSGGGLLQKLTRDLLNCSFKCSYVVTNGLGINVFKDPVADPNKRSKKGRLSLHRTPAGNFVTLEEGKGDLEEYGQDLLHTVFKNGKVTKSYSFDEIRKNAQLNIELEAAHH
As a reminder, the IC50 is the concentration that inhibits the measured activity by half. For `C#CCNC(=O)c1ccc2nc(-c3cccc(NC(C)=O)c3)c(-c3cccc(NC(C)=O)c3)nc2c1` [BC20227], the IC50 was at least 25 µM.

Take `C#CCNC(=O)c1ccc2nc(-c3cccc(NC(=O)COC)c3)c(-c3cccc(NC(=O)COC)c3)nc2c1` [BC20228]: the half-inhibitory concentration (IC50) was at least 25 µM.

In the case of `CN(C)CC(=O)Nc1cccc(-c2nc3cc(C(=O)N4CCN(C)CC4)ccc3nc2-c2ccc(F)cc2)c1` [BC20229], the 50% inhibitory concentration (IC50) is at least 25 µM.

With `CC(=O)NCc1cccc(-c2nc3cc(C(=O)N4CCN(C)CC4)ccc3nc2-c2ccc(F)cc2)c1` [BC20230], the IC50 is at least 25 µM.

Consider `CN1CCN(C(=O)c2ccc3nc(-c4ccc(F)cc4)c(-c4cccc(CNS(C)(=O)=O)c4)nc3c2)CC1` [BC20231], for which the IC50 is at least 25 µM.

Consider `CN1CCN(Cc2cccc(-c3nc4cc(C(=O)N5CCN(C)CC5)ccc4nc3-c3ccc(F)cc3)c2)CC1` [BC20232], for which the IC50 is at least 25 µM.

Turning to `C#CCNC(=O)c1ccc2nc(-c3ccc(F)cc3)c(-c3cccc(CN(C)C)c3)nc2c1` [BC20233], the IC50 is at least 25 µM.

Take `C#CCNC(=O)c1ccc2nc(-c3cccc(CN(C)C)c3)c(-c3ccc(F)cc3)nc2c1` [BC20234]: the IC50 is at least 25 µM.

Take `O=C(NCc1cccnc1)NCc1ccc2nc(-c3ccc(F)cc3)c(-c3ccc(F)cc3)nc2c1` [BC20236]: the IC50 lay within 1 to 25 µM.

Regarding `CN1CCCC(NC(=O)Nc2ccc3nc(-c4ccc(F)cc4)c(-c4ccc(F)cc4)nc3c2)C1` (stereo not shown) [BC20237], the IC50 is at least 25 µM.

As to `CS(=O)(=O)N1CCCC(NC(=O)Nc2ccc3nc(-c4ccc(F)cc4)c(-c4ccc(F)cc4)nc3c2)C1` (stereo not shown) [BC20238], the IC50 was in the range of 1 to 25 µM.

With `CC(=O)N1CCCC(NC(=O)Nc2cnc3nc(-c4ccc(F)cc4)c(-c4ccc(F)cc4)nc3c2)C1` (stereo not shown) [BC20239], the IC50 is at least 25 µM.

In the case of `CN1CCN(C(=O)c2ccc3nc(-c4ccc(F)cc4)c(-c4cccc(CO)c4)nc3c2)CC1` [BC20240], the half-maximal inhibitory concentration (IC50) was at least 25 µM.

Turning to `CC(=O)Nc1cccc(-c2nc3ccc(C(=O)N4CCN(C)CC4)cc3nc2-c2cccc(NC(C)=O)c2)c1` [BC20241], the IC50 is at least 25 µM.

Take `CN1CCN(C(=O)c2ccc3nc(-c4cccc(CN5CCCC5)c4)c(-c4cccc(CN5CCCC5)c4)nc3c2)CC1` [BC20242]: the IC50 is at least 25 µM.

For `CN1CCN(Cc2cccc(-c3nc4ccc(C(=O)N5CCN(C)CC5)cc4nc3-c3cccc(CN4CCN(C)CC4)c3)c2)CC1` [BC20243], the IC50 was at least 25 µM.

As for `C#CCNC(=O)c1ccc2nc(-c3ccc(F)cc3)c(-c3cccc(N(C)C)c3)nc2c1` [BC20244], the IC50 is at least 25 µM.

In the case of `COCC(=O)Nc1cccc(-c2nc3ccc(C(=O)N4CCN(C)CC4)cc3nc2-c2ccc(F)cc2)c1` [BC20245], the IC50 was at least 25 µM.

For `CN1CCN(C(=O)c2ccc3nc(-c4cccc(N(C)C)c4)c(-c4ccc(F)cc4)nc3c2)CC1` [BC20246], the IC50 was at least 25 µM.

Take `C#CCNC(=O)c1ccc2nc(-c3cccc(NS(C)(=O)=O)c3)c(-c3ccc(F)cc3)nc2c1` [BC20247]: the IC50 lay within 1 to 25 µM.

Take `CN1CCN(C(=O)c2ccc3nc(-c4cccc(CN5CCCC5)c4)c(-c4ccc(F)cc4)nc3c2)CC1` [BC20248]: the IC50 was at least 25 µM.

With `CN1CCN(Cc2cccc(-c3nc4ccc(C(=O)N5CCN(C)CC5)cc4nc3-c3ccc(F)cc3)c2)CC1` [BC20249], the IC50 was at least 25 µM.

For the molecule `O=C(NCc1ccc2nc(-c3ccc(F)cc3)c(-c3ccc(F)cc3)nc2c1)NC1CCCNC1` (stereo not shown) [BC20250], the IC50 was at least 25 µM.

For the molecule `CN1CCCC(NC(=O)NCc2ccc3nc(-c4ccc(F)cc4)c(-c4ccc(F)cc4)nc3c2)C1` (stereo not shown) [BC20251], the IC50 was at least 25 µM.

With `CC(=O)N1CCCC(NC(=O)NCc2ccc3nc(-c4ccc(F)cc4)c(-c4ccc(F)cc4)nc3c2)C1` (stereo not shown) [BC20252], the concentration for half-maximal inhibition (IC50) is at least 25 µM.

As for `CS(=O)(=O)N1CCCC(NC(=O)NCc2ccc3nc(-c4ccc(F)cc4)c(-c4ccc(F)cc4)nc3c2)C1` (stereo not shown) [BC20253], the IC50 is at least 25 µM.

`O=C(Nc1cnc2nc(-c3ccc(F)cc3)c(-c3ccc(F)cc3)nc2c1)NC1CCCNC1` (stereo not shown) [BC20255]: the IC50 was at least 25 µM.

As for `CS(=O)(=O)N1CCCC(NC(=O)Nc2cnc3nc(-c4ccc(F)cc4)c(-c4ccc(F)cc4)nc3c2)C1` (stereo not shown) [BC20256], the IC50 lay in the range of 1 to 25 µM.

For `CN1CCN(C(=O)c2ccc3nc(-c4cccc(NS(C)(=O)=O)c4)c(-c4cccc(NS(C)(=O)=O)c4)nc3c2)CC1` [BC20258], the IC50 was at least 25 µM.

As to `CN1CCN(C(=O)c2ccc3nc(-c4cccc(CNS(C)(=O)=O)c4)c(-c4cccc(CNS(C)(=O)=O)c4)nc3c2)CC1` [BC20259], the IC50 was at least 25 µM.

For `CN(C)Cc1cccc(-c2nc3ccc(C(=O)N4CCN(C)CC4)cc3nc2-c2cccc(CN(C)C)c2)c1` [BC20260], the IC50 was at least 25 µM.

Take `C#CCNC(=O)c1ccc2nc(-c3cccc(CNS(C)(=O)=O)c3)c(-c3cccc(CNS(C)(=O)=O)c3)nc2c1` [BC20261]: the IC50 is at least 25 µM.

Take `CN1CCN(C(=O)c2ccc3nc(-c4ccc(F)cc4)c(-c4cccc(N(C)C)c4)nc3c2)CC1` [BC20262]: the IC50 was at least 25 µM.

As for `CN(C)CC(=O)NCc1cccc(-c2nc3cc(C(=O)N4CCN(C)CC4)ccc3nc2-c2ccc(F)cc2)c1` [BC20263], the IC50 was at least 25 µM.

With `COCC(=O)NCc1cccc(-c2nc3cc(C(=O)N4CCN(C)CC4)ccc3nc2-c2ccc(F)cc2)c1` [BC20264], the IC50 is at least 25 µM.

In the case of `CN1CCN(C(=O)c2ccc3nc(-c4ccc(F)cc4)c(-c4cccc(CN5CCCC5)c4)nc3c2)CC1` [BC20265], the IC50 was at least 25 µM.

For `C#CCNC(=O)c1ccc2nc(-c3cccc(NC(=O)CN(C)C)c3)c(-c3ccc(F)cc3)nc2c1` [BC20266], the IC50 was at least 25 µM.

For `O=C(NCc1ccc2nc(-c3ccc(F)cc3)c(-c3ccc(F)cc3)nc2c1)c1cccnc1` [BC20267], the IC50 was 1 to 25 µM.

As to `CN1CCCC(NC(=O)Nc2cnc3nc(-c4ccc(F)cc4)c(-c4ccc(F)cc4)nc3c2)C1` (stereo not shown) [BC20269], the IC50 is at least 25 µM.

In the case of `CS(=O)(=O)N1CCC[C@H](CNC(=O)c2ccc3nc(-c4ccc(F)cc4)c(-c4ccc(F)cc4)nc3c2)C1` [BC20270], the half-inhibitory concentration (IC50) was at least 25 µM.

In the case of `CC(=O)N1CCC[C@H](CNC(=O)c2ccc3nc(-c4ccc(F)cc4)c(-c4ccc(F)cc4)nc3c2)C1` [BC20271], the IC50 was at least 25 µM.

Regarding `CC(=O)NCc1cccc(-c2nc3ccc(C(=O)N4CCN(C)CC4)cc3nc2-c2cccc(CNC(C)=O)c2)c1` [BC20272], the IC50 was at least 25 µM.

On to `COCC(=O)NCc1cccc(-c2nc3ccc(C(=O)N4CCN(C)CC4)cc3nc2-c2cccc(CNC(=O)COC)c2)c1` [BC20273], for which the IC50 was at least 25 µM.

In the case of `C#CCNC(=O)c1ccc2nc(-c3cccc(CNC(C)=O)c3)c(-c3cccc(CNC(C)=O)c3)nc2c1` [BC20274], the IC50 is at least 25 µM.

As to `C#CCNC(=O)c1ccc2nc(-c3cccc(CNC(=O)COC)c3)c(-c3cccc(CNC(=O)COC)c3)nc2c1` [BC20275], the IC50 is at least 25 µM.

As to `C#CCNC(=O)c1ccc2nc(-c3ccc(F)cc3)c(-c3cccc(CNC(=O)COC)c3)nc2c1` [BC20276], the IC50 was at least 25 µM.

With `O=C1N(Cc2cccnc2)CCN1c1ccc2nc(-c3ccc(F)cc3)c(-c3ccc(F)cc3)nc2c1` [BC20277], the IC50 lay in the range of 1 to 25 µM.

Consider `O=C(Cc1cccnc1)NCc1ccc2nc(-c3ccc(F)cc3)c(-c3ccc(F)cc3)nc2c1` [BC20278], for which the IC50 was in the range of 1 to 25 µM.

Turning to `O=C(NC[C@H]1CCCNC1)c1ccc2nc(-c3ccc(F)cc3)c(-c3ccc(F)cc3)nc2c1` [BC20279], the IC50 was at least 25 µM.

For the origin of these results see patent publication US20230321086A1, “METHODS AND MATERIALS FOR INHIBITING NICOTINAMIDE PHOSPHORIBOSYLTRANSFERASE ACTIVITY” (Universiy of Pittsburgh - Of the Commonwealth System of …, priority 2020, published 2023).
